Test results from US9446007B2, “Methods for maintaining or improving health, well-being and/or a physiological function in a subject” (DYNAMIS THERAPEUTICS, INC., priority 2012, dated 2016).

Assays:
[1] = Effects of meglumine in a human subject (Example 5); type: in vivo; details: person, 500-1,500 mg orally daily over 5 years
Procedure: A person suffering from right knee joint pain, and otherwise in good health, was orally administered 500-1,500 mg of meglumine hydrochloride on a daily basis over the period of 5 years (with two months off).

[2] = Effects of meglumine in a human subject (Example 10); type: in vivo; details: person
Procedure: A person, suffering from scleroderma and type 2 diabetes, overweight and with difficulty to lose through dieting and exercise, experiencing less energy than when younger, was administered meglumine hydrochloride (500 mg to 2000 mg) orally almost every day over 5 years.

[3] = Effects of meglumine in a human subject (Example 9); type: in vivo; details: orally daily, 7 months
Text: A person suffering from high blood sugar was orally administered meglumine hydrochloride on a daily basis over the period of 7 months.

triglyceride = experiment: Serum triglyceride levels; type: in vivo, KK.Cg-A^y/+/J diabetic mice; details: 18 mM in drinking water for 32 weeks; n=9; control 752.21±201.29; p<0.001
Procedure: Serum triglyceride levels were measured in KK.Cg-A^y/+/J diabetic mice treated with 18 mM meglumine hydrochloride in the drinking water for 32 weeks. […] A t-test was used to compare the mean values and a p<0.001 was calculated, indicating the decrease in plasma triglycerides in the meglumine treated mice is statistically significant.

[4] = Effects of meglumine in a human subject (Example 11): blood lipids, lipoproteins, inflammation markers; type: in vivo; details: person, type 2 diabetes, 3×500 mg orally, with metformin
Procedure: A person, suffering from type 2 diabetes, overweight (height of 5 feet 1 inch, and weight of 129 pounds, as of month 0) and with difficulty to lose weight through dieting and exercise, was administered meglumine hydrochloride (3×500 mg) orally over the period of 8 months. Over the duration of the study the subject was also administered metformin orally to manage their type 2 diabetes. The subject's blood was analyzed for lipids, lipoprotein particles and apolipoproteins, and inflammation/oxidation markers.

[5] = Effects of meglumine in a human subject (Example 6); type: in vivo; details: orally daily, one month
Text: A person suffering from high blood pleasure was orally administered meglumine hydrochloride on a daily basis over the period of one month.

[6] = Effects of meglumine in a human subject (Example 8); type: in vivo; details: overweight person, 500-1,500 mg orally daily, 14 months
Procedure: A person was overweight and suffering from fatty liver, experienced sore joints, lacked energy and required extended recovery time after exercise & travel, was orally administered 500-1,500 mg of meglumine hydrochloride on a daily basis over the period of 14 months.

[7] = Effects of meglumine in a human subject (Example 7); type: in vivo; details: person on a blood thinner; orally daily, 1 month
Text: A person on a blood thinner medication was orally administered meglumine hydrochloride on a daily basis over the period of 1 month.

albumin/creatinine ratio = experiment: Urinary albumin/creatinine; type: in vivo, KK.Cg-A^y/+/J and KK.Cg-A^+/+/J mice; details: 18 mM in drinking water, 12 weeks, not significant
Procedure: Urinary creatinine and albumin levels were measured in KK.Cg-A^y/+/J “mutant” diabetic mice and KK.Cg-A^+/+/J “control” mice treated with or without 18 mM meglumine hydrochloride in the drinking water for 12 weeks.

[8] = 500 mg to 2000 mg orally over 5 years

## CNC[C@H](O)[C@@H](O)[C@H](O)[C@H](O)CO.Cl [meglumine hydrochloride]
[1]
  body weight: overall weight loss/control effect
  increase in arm diameter: 1 inch
  mental capacity: increased mental capacity
  muscle-to-fat index: increase in muscle-to-fat index
  sexual stamina and sexual performance: improved sexual stamina and sexual performance
  skin condition: improved
  vitality or energy levels: improved vitality or energy levels
[1]; from 200 lb
  military press weights: 355 lb
[2]; scleroderma and type 2 diabetes, 500 mg to 2000 mg orally almost every day, first two and one half years
  weight lost: over 30 pounds
[2]; type 2 diabetes, 500 mg to 2000 mg orally over 5 years
  insulin and creatine/albumin levels: normal
[2]; type 2 diabetes, minimum dose of 500 mg three times a day
  blood glucose level: improved
[2]; 500 mg to 2000 mg orally
  HDL levels: stayed the same
  Lp-PLA level: went down
  fibrinogen homocysteine levels: stayed the same
[2]; [8]
  eye sight: improved
  mental capacity: has not deteriorated
  overall energy levels: increased
  overall skin tone and texture: improved
[2]; 500 mg to 2000 mg orally, from 0.58
  CRP level: < 0.3
[2]; 500 mg to 2000 mg orally, from 209, within the last 16 months
  LDL level: 160 mg/dL
[2]; 500 mg to 2000 mg orally, from 300, without diet change or any medicines
  cholesterol levels: 265 mg/dL
[3]; person with high blood sugar, decrease from 202
  blood glucose level: 75 mg/dL
[3]; person with high blood sugar, without regain
  weight loss: 25 pounds
[3]; person
  mental capacity: increased mental capacity
  nail and hair health: improvement in nail and hair health
  sexual stamina and sexual performance: dramatically improved sexual stamina and sexual performance
  skin condition: improved
  vitality or energy levels: improved vitality or energy levels
triglyceride
  serum triglyceride levels: 322.66 ± 158.85 mg/dL
[4]; month 8 (month 0: 0.73)
  Apo B:Apo A-I ratio (calculated): 0.45
[4]; month 8 (month 0: 5)
  Lp(a) mass: 6 mg/dL
[4]; month 8 (month 0: 19)
  HDL2-C: 22 mg/dL
[4]; month 8 (month 0: 35)
  % sdLDL-C (calculated): 25%
[4]; month 8 (month 0: 44.3)
  HDL-P: 43.7 μmol-L
[4]; month 8 (month 0: 56)
  sdLDL-C: 28 mg/dL
[4]; month 8 (month 0: 69)
  Lipids: HDL-C: 71 mg/dL
[4]; month 8 (month 0: 133)
  Apo B: 79 mg/dL
[4]; month 8 (month 0: 135)
  Lipids: triglycerides: 82 mg/dL
[4]; month 8 (month 0: 152)
  Lp-PLA2: 172 ng/mL
[4]; month 8 (month 0: 160)
  Lipids: LDL-C direct: 111 mg/dL
[4]; month 8 (month 0: 183)
  Apo A-I: 176 mg/dL
[4]; month 8 (month 0: 196)
  Lipids: non-HDL-C (calculated): 134 mg/dL
[4]; month 8 (month 0: 265)
  Lipids: total cholesterol: 205 mg/dL
[4]; month 8 (month 0: 332)
  fibrinogen: 334 mg/dL
[4]; month 8 (month 0: 2,250)
  LDL-P: 1,529 nmol/L
[4]; month 8 (month 0: <0.3)
  hs-CRP: 0.3 mg/L
[5]; person with high blood pressure, reduced from 220/110
  blood pressure: around 130/78
[5]; person
  sleep and energy: better sleep and felt more energetic
[5]; person, at least one dress size
  body weight: weight loss
[6]
  mental capacity: increased mental capacity
  muscle strength: improved muscle strength
  nail and hair health: improvement in nail and hair health
  sexual stamina and sexual performance: improved sexual stamina and sexual performance
  skin condition: improved
  vitality or energy levels: improved vitality or energy levels
  weight lost per month: approximately 0.5 kg
[6]; from 108 kg
  body weight on average: 102 kg
[7]
  need for blood thinner medication: able to discontinue the use of the blood thinner
albumin/creatinine ratio; KK.Cg-A^+/+/J control mice, without meglumine 2.5±1.2
  urinary albumin/creatinine ratio: 1.6±1.8
albumin/creatinine ratio; KK.Cg-A^y/+/J mutant diabetic mice, without meglumine 17.3±15.4
  urinary albumin/creatinine ratio: 12.4±8.7
